# Article PMC2119975 (The Journal of Cell Biology, 1994)
# Tests used:
# [1] = system: HT1080 human fibrosarcoma cells; assay: Cell adhesion assay, HT1080 cells; format: cell-based; conditions: Fig. 7 B; coating and inhibitor 100 μM; EDTA 2 mM; cells preincubated
# type II alveolar cells = assay: Alveolar inhibition studies on gelled BMS; format: cell-based, rat; conditions: Fig. 6; cells preincubated with peptide, up to 700 μM; day five; n = 9
Compound,Inhibition of HT1080 cell adhesion to SN-peptide [1],Effect of tryptic peptides of SN-peptide on alveolar formation (type II alveolar cells)
O=C(O)CN(CCN(CC(=O)O)CC(=O)O)CC(=O)O [EDTA],inhibited,
FGNMGS,,minimal
WHSIYITR,,partial
